# Measured values taken from the supplement of paper PMC4862054.
# Legend:
# Conditions in all cases: 72 h
# [1] = system: DU-4475
# In short: (§1)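 Breast cancer cell lines in 20 µl suspension were added to 384-well plates already holding compound at 5 concentrations, spaced in 10-fold steps across a compound-specific 10,000-fold range, and incubated for 72 h. CellTox Green fluorescence (485/520 nm) was read first to measure cell death, followed by CellTiter-Glo luminescence for viability after 10 min at room temperature. Each plate was normalised to 0.1 % DMSO and a positive kill control. EC50 values came from dose-response curve fits and were censored at the top concentration.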
# [2] = system: MDA-MB-231
# In short: as §1
# [3] = system: CAL-51
# In short: as §1
# [4] = system: HCC1143
# In short: as §1
# [5] = system: HCC1599
# In short: as §1
# [6] = system: SK-BR-3
# In short: as §1
# [7] = system: MFM-223
# In short: as §1
# [8] = system: CAL-85-1
# In short: as §1
# [9] = system: MDA-MB-468
# In short: as §1
# [10] = system: CAL-120
# In short: as §1
# [11] = system: MDA-MB-436
# In short: as §1
# [12] = system: HCC1937
# In short: as §1
# [13] = system: Hs578T
# In short: as §1
# [14] = system: MCF-10A
# In short: as §1
# [15] = system: MDA-MB-453
# In short: as §1
# [16] = system: CAL-148
# In short: as §1
# [17] = system: HDQ-P1
# In short: as §1
# [18] = system: BT-549
# In short: as §1
# [19] = system: BT-474
# In short: as §1
# [20] = system: MDA-MB-231; remark: listed apart in the source
# Experimental: (§2)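 Drug sensitivity and resistance testing (DSRT) of breast cancer cell lines in 384-well plates, 5 concentrations in 10-fold dilutions over a compound-specific 10,000-fold range. After 72 h, cytotoxicity was read by CellTox Green fluorescence and viability by CellTiter-Glo luminescence (multiplexed), normalised to DMSO and benzethonium chloride controls. EC50 is the inflection point of the fitted dose-response curve (bottom asymptote free, so it can be relative for partial curves) and is censored at the highest tested concentration. Rows with DSS 0 (no meaningful response) were excluded.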
# [21] = system: CAL-51; remark: listed apart in the source
# Experimental: as §2
# [22] = system: MFM-223; remark: listed apart in the source
# Experimental: as §2
# [23] = system: CAL-85-1; remark: listed apart in the source
# Experimental: as §2
# [24] = system: MDA-MB-468; remark: listed apart in the source
# Experimental: as §2
# [25] = system: CAL-120; remark: listed apart in the source
# Experimental: as §2
# [26] = system: Hs578T; remark: listed apart in the source
# Experimental: as §2
# [27] = system: MCF-10A; remark: listed apart in the source
# Experimental: as §2
# [28] = system: HDQ-P1; remark: listed apart in the source
# Experimental: as §2
# [29] = system: BT-549; remark: listed apart in the source
# Experimental: as §2
# [30] = system: BT-474; remark: listed apart in the source
# Experimental: as §2
# [31] = system: MDA-MB-231; remark: listed apart in the source
# In short: (§3)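 EC50 is the value from a fitted percent-inhibition dose-response curve, censored at the highest concentration, and rows with zero drug sensitivity score were not kept. The underlying assay seeded breast cancer cell lines in 20 µl onto 384-well plates pre-loaded with compound in 5 µl medium for 72 h. Viability was then read by CellTiter-Blue fluorescence at 560/590 nm after 2 h at 37 °C, with each plate normalised to vehicle and a positive kill control.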
# [32] = system: HCC1143; remark: listed apart in the source
# In short: as §3
# [33] = system: HCC1599; remark: listed apart in the source
# In short: as §3
# [34] = system: SK-BR-3; remark: listed apart in the source
# In short: as §3
# [35] = system: MFM-223; remark: listed apart in the source
# In short: as §3
# [36] = system: MDA-MB-468; remark: listed apart in the source
# In short: as §3
# [37] = system: CAL-120; remark: listed apart in the source
# In short: as §3
# [38] = system: MDA-MB-436; remark: listed apart in the source
# In short: as §3
# [39] = system: HCC1937; remark: listed apart in the source
# In short: as §3
# [40] = system: Hs578T; remark: listed apart in the source
# In short: as §3
# [41] = system: BT-549; remark: listed apart in the source
# In short: as §3
# [42] = system: BT-474; remark: listed apart in the source
# In short: as §3
# [43] = system: DU-4475; remark: listed apart in the source
# In short: as §3
# [44] = system: CAL-51; remark: listed apart in the source
# In short: as §3
# [45] = system: CAL-85-1; remark: listed apart in the source
# In short: as §3
# [46] = system: MDA-MB-453; remark: listed apart in the source
# In short: as §3
# [47] = system: CAL-148; remark: listed apart in the source
# In short: as §3
# [48] = system: HDQ-P1; remark: listed apart in the source
# In short: as §3
# [49] = system: MDA-MB-453; remark: listed apart in the source
# Experimental: as §2
# [50] = system: HCC1599; remark: listed apart in the source
# Experimental: as §2
# [51] = system: MDA-MB-436; remark: listed apart in the source
# Experimental: as §2
# [52] = system: HCC1937; remark: listed apart in the source
# Experimental: as §2
smiles,measurement,setting,value
C=CC(=O)Nc1cc2c(Nc3ccc(F)c(Cl)c3)ncnc2cc1OCCCN1CCOCC1 [Canertinib],"EC50, CellTiter-Glo",[1],8.21 µM
same,"EC50, CellTiter-Glo",[2],1.63 µM
same,"EC50, CellTiter-Glo",[3],0.573 µM
same,"EC50, CellTiter-Glo",[4],4.71 µM
same,"EC50, CellTiter-Glo",[5],0.586 µM
same,"EC50, CellTiter-Glo",[6],0.0488 µM
same,"EC50, CellTiter-Glo",[7],5.5 µM
same,"EC50, CellTiter-Glo",[8],0.595 µM
same,"EC50, CellTiter-Glo",[9],1.12 µM
same,"EC50, CellTiter-Glo",[10],5.39 µM
same,"EC50, CellTiter-Glo",[11],4.37 µM
same,"EC50, CellTiter-Glo",[12],3.34 µM
same,"EC50, CellTiter-Glo",[13],5.45 µM
same,"EC50, CellTiter-Glo",[14],0.106 µM
same,"EC50, CellTiter-Glo",[15],3.02 µM
same,"EC50, CellTiter-Glo",[16],1.39 µM
same,"EC50, CellTiter-Glo",[17],0.93 µM
same,"EC50, CellTiter-Glo",[18],2.11 µM
same,"EC50, CellTiter-Glo",[19],2.6 µM
same,"EC50, CellTox Green",[20],4.92 µM
same,"EC50, CellTox Green",[21],3.01 µM
same,"EC50, CellTox Green",[22],6.74 µM
same,"EC50, CellTox Green",[23],1.62 µM
same,"EC50, CellTox Green",[24],3.21 µM
same,"EC50, CellTox Green",[25],6.66 µM
same,"EC50, CellTox Green",[26],2.85 µM
same,"EC50, CellTox Green",[27],1.69 µM
same,"EC50, CellTox Green",[28],3.47 µM
same,"EC50, CellTox Green",[29],9.07 µM
same,"EC50, CellTox Green",[30],9.8 µM
same,"EC50, CellTiter-Blue viability",[31],1.82 µM
same,"EC50, CellTiter-Blue viability",[32],4.17 µM
same,"EC50, CellTiter-Blue viability",[33],9.08 µM
same,"EC50, CellTiter-Blue viability",[34],0.0166 µM
same,"EC50, CellTiter-Blue viability",[35],3.02 µM
same,"EC50, CellTiter-Blue viability",[36],0.571 µM
same,"EC50, CellTiter-Blue viability",[37],1.72 µM
same,"EC50, CellTiter-Blue viability",[38],0.811 µM
same,"EC50, CellTiter-Blue viability",[39],2.25 µM
same,"EC50, CellTiter-Blue viability",[40],3.7 µM
same,"EC50, CellTiter-Blue viability",[41],2.48 µM
same,"EC50, CellTiter-Blue viability",[42],0.11 µM
same,"EC50, CellTiter-Blue viability",[43],5.98 µM
same,"EC50, CellTiter-Blue viability",[44],4.69 µM
same,"EC50, CellTiter-Blue viability",[45],0.361 µM
same,"EC50, CellTiter-Blue viability",[46],0.243 µM
same,"EC50, CellTiter-Blue viability",[47],3.37 µM
same,"EC50, CellTiter-Blue viability",[48],0.448 µM
Nc1ncn([C@H]2C[C@H](O)[C@@H](CO)O2)c(=O)n1 [Decitabine],"EC50, CellTiter-Glo",[3],1.16 µM
same,"EC50, CellTiter-Glo",[9],0.0652 µM
same,"EC50, CellTiter-Glo",[12],3.5 µM
same,"EC50, CellTiter-Glo",[13],> 10 µM
same,"EC50, CellTiter-Glo",[17],> 10 µM
same,"EC50, CellTiter-Glo",[18],0.604 µM
same,"EC50, CellTiter-Glo",[19],> 10 µM
same,"EC50, CellTox Green",[21],0.0289 µM
same,"EC50, CellTox Green",[24],> 10 µM
same,"EC50, CellTox Green",[49],> 10 µM
same,"EC50, CellTiter-Blue viability",[31],0.096 µM
same,"EC50, CellTiter-Blue viability",[33],> 10 µM
same,"EC50, CellTiter-Blue viability",[34],3.47 µM
same,"EC50, CellTiter-Blue viability",[36],0.0404 µM
same,"EC50, CellTiter-Blue viability",[38],0.0901 µM
same,"EC50, CellTiter-Blue viability",[39],0.737 µM
same,"EC50, CellTiter-Blue viability",[41],1.8 µM
same,"EC50, CellTiter-Blue viability",[42],1.97 µM
same,"EC50, CellTiter-Blue viability",[43],6.76 µM
same,"EC50, CellTiter-Blue viability",[44],2.38 µM
same,"EC50, CellTiter-Blue viability",[46],6.49 µM
same,"EC50, CellTiter-Blue viability",[47],6.6 µM
C=CC(=O)N1CCC[C@@H](n2nc(-c3ccc(Oc4ccccc4)cc3)c3c(N)ncnc32)C1 [Ibrutinib],"EC50, CellTiter-Glo",[3],0.415 µM
same,"EC50, CellTiter-Glo",[6],0.0119 µM
same,"EC50, CellTiter-Glo",[8],0.493 µM
same,"EC50, CellTiter-Glo",[14],0.198 µM
same,"EC50, CellTiter-Glo",[15],0.0105 µM
same,"EC50, CellTiter-Glo",[17],0.168 µM
same,"EC50, CellTox Green",[21],> 1 µM
same,"EC50, CellTox Green",[23],0.416 µM
same,"EC50, CellTox Green",[49],0.943 µM
same,"EC50, CellTox Green",[28],> 1 µM
O=C(Cc1ccc(-c2ccc(OCCN3CCOCC3)cc2)cn1)NCc1ccccc1 [KX2-391],"EC50, CellTiter-Glo",[1],0.0347 µM
same,"EC50, CellTiter-Glo",[2],0.0759 µM
same,"EC50, CellTiter-Glo",[3],0.0168 µM
same,"EC50, CellTiter-Glo",[4],0.0282 µM
same,"EC50, CellTiter-Glo",[5],0.0619 µM
same,"EC50, CellTiter-Glo",[6],0.0201 µM
same,"EC50, CellTiter-Glo",[7],0.0839 µM
same,"EC50, CellTiter-Glo",[8],0.023 µM
same,"EC50, CellTiter-Glo",[9],0.0442 µM
same,"EC50, CellTiter-Glo",[10],0.0571 µM
same,"EC50, CellTiter-Glo",[11],0.0514 µM
same,"EC50, CellTiter-Glo",[12],0.0345 µM
same,"EC50, CellTiter-Glo",[13],0.0496 µM
same,"EC50, CellTiter-Glo",[14],0.0296 µM
same,"EC50, CellTiter-Glo",[15],0.0556 µM
same,"EC50, CellTiter-Glo",[16],0.0358 µM
same,"EC50, CellTiter-Glo",[17],0.0265 µM
same,"EC50, CellTiter-Glo",[18],0.0447 µM
same,"EC50, CellTiter-Glo",[19],0.07 µM
same,"EC50, CellTox Green",[21],0.0238 µM
same,"EC50, CellTox Green",[50],0.267 µM
same,"EC50, CellTox Green",[22],0.328 µM
same,"EC50, CellTox Green",[23],0.0221 µM
same,"EC50, CellTox Green",[24],0.0194 µM
same,"EC50, CellTox Green",[51],> 10 µM
same,"EC50, CellTox Green",[52],5 µM
same,"EC50, CellTox Green",[26],0.523 µM
same,"EC50, CellTox Green",[27],0.0598 µM
same,"EC50, CellTox Green",[28],4.11 µM
same,"EC50, CellTox Green",[30],0.307 µM
same,"EC50, CellTiter-Blue viability",[31],0.0431 µM
same,"EC50, CellTiter-Blue viability",[32],0.0136 µM
same,"EC50, CellTiter-Blue viability",[33],0.212 µM
same,"EC50, CellTiter-Blue viability",[34],0.0348 µM
same,"EC50, CellTiter-Blue viability",[35],0.0574 µM
same,"EC50, CellTiter-Blue viability",[36],0.0403 µM
same,"EC50, CellTiter-Blue viability",[37],0.0313 µM
same,"EC50, CellTiter-Blue viability",[38],0.0514 µM
same,"EC50, CellTiter-Blue viability",[39],0.0472 µM
same,"EC50, CellTiter-Blue viability",[40],0.0279 µM
same,"EC50, CellTiter-Blue viability",[41],0.0378 µM
same,"EC50, CellTiter-Blue viability",[42],0.0479 µM
same,"EC50, CellTiter-Blue viability",[43],0.0461 µM
same,"EC50, CellTiter-Blue viability",[44],0.063 µM
same,"EC50, CellTiter-Blue viability",[45],0.0231 µM
same,"EC50, CellTiter-Blue viability",[46],0.0351 µM
same,"EC50, CellTiter-Blue viability",[47],0.0471 µM
same,"EC50, CellTiter-Blue viability",[48],0.0536 µM
